Legend:
HT-29 = assay: Growth inhibition of human HT-29 cells after 96 hrs by sulforhodamine B assay; type: functional; settings: HT-29, 96 h
KM12 = assay: Growth inhibition of human KM12 cells after 96 hrs by sulforhodamine B assay; type: functional; settings: KM12, 96 h
A2780 [1] = assay: Growth inhibition of cisplatin-resistant human A2780 cells after 96 hrs by sulforhodamine B assay; type: functional; settings: A2780, 96 h
HCT-116 = assay: Growth inhibition of human HCT116 cells after 96 hrs by sulforhodamine B assay; type: functional; settings: HCT-116, 96 h
CH1 [2] = assay: Growth inhibition of doxorubicin-resistant human CH1 cells after 96 hrs by sulforhodamine B assay; type: functional; settings: CH1, 96 h
A2780 [3] = assay: Growth inhibition of cisplatin-susceptible human A2780 cells after 96 hrs by sulforhodamine B assay; type: functional; settings: A2780, 96 h
[4] = Metabolic stability in mouse liver microsomes assessed as compound metabolized at 10 uM after 30 mins by LC-MS analysis; type: ADME, Microsome; settings: read-out: Activity
[5] = Inhibition of PKA
CH1 [6] = assay: Growth inhibition of doxorubicin-susceptible human CH1 cells after 96 hrs by sulforhodamine B assay; type: functional; settings: CH1, 96 h
[7] = target: Cyclin-dependent kinase 7/ cyclin H (Homo sapiens, UniProt P50613); assay: Inhibition of CDK7/cyclin H; type: protein-complex assay
Cyclin-dependent kinase 7/ cyclin H, sequence (P51946 whole entry): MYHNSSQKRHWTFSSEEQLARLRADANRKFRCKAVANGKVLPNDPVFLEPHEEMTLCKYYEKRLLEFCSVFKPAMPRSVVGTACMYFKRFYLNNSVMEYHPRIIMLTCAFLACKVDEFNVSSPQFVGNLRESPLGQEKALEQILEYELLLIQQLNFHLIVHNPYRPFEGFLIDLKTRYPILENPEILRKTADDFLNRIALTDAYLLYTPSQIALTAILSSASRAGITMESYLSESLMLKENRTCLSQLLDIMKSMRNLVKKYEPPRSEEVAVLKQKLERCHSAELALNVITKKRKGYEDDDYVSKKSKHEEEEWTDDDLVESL
Cyclin-dependent kinase 7/ cyclin H, sequence (P50613 whole entry): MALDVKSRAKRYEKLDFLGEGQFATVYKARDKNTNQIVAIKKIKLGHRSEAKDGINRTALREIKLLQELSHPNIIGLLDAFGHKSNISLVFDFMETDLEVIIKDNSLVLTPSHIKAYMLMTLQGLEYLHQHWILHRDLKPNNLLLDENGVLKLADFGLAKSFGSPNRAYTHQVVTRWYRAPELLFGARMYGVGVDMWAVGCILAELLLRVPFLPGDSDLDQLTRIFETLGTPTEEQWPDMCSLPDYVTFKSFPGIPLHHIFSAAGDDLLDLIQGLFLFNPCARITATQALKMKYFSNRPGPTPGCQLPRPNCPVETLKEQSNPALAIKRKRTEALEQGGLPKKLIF

[8] = target: Cyclin-dependent kinase 4/cyclin D1 (Homo sapiens, UniProt P11802); assay: Inhibition of CDK4/cyclin D1; type: protein-complex assay
Cyclin-dependent kinase 4/cyclin D1, sequence (P11802 whole entry): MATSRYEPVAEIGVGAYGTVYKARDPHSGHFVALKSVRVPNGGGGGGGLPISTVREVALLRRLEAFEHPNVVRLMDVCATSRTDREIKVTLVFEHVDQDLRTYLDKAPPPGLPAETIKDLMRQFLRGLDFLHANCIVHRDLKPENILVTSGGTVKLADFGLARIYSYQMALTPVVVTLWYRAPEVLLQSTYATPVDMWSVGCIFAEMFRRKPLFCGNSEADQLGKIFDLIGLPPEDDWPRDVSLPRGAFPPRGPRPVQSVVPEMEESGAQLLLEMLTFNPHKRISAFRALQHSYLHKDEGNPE
Cyclin-dependent kinase 4/cyclin D1, sequence (P24385 whole entry, further chain): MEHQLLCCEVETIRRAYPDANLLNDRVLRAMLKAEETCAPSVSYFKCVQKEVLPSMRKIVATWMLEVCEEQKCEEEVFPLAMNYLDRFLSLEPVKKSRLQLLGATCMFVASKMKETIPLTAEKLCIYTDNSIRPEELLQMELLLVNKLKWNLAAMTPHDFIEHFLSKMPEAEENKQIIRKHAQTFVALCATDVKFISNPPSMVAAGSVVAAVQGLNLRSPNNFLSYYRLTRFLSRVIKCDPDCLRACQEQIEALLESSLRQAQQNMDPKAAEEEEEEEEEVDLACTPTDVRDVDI

[9] = target: Mitogen-activated protein kinase 1 (Homo sapiens, UniProt P28482); assay: Inhibition of ERK2
Mitogen-activated protein kinase 1, sequence (P28482 whole entry): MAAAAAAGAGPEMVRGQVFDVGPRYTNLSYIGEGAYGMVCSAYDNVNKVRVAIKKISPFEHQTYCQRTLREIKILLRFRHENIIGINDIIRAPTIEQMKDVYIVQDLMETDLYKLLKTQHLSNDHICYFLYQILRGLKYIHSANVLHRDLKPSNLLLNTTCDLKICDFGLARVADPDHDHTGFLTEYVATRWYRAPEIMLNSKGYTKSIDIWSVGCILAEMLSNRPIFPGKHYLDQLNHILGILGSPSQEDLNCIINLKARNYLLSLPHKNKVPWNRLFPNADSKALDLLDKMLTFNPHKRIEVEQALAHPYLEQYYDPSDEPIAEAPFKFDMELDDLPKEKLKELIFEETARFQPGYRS

[10] = target: Cyclin-dependent kinase 1/cyclin B1 (Homo sapiens, UniProt P06493); assay: Inhibition of CDK1/cyclin B; type: protein-complex assay
Cyclin-dependent kinase 1/cyclin B1, sequence (P06493 whole entry): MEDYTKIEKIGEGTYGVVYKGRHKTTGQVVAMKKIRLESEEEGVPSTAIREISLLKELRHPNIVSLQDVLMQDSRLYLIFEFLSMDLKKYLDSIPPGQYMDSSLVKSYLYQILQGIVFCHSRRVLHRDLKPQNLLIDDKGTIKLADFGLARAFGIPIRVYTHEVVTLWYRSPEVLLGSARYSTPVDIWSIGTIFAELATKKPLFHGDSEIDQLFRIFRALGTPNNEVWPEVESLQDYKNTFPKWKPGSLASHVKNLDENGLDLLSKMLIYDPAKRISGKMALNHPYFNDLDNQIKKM
Cyclin-dependent kinase 1/cyclin B1, sequence (P14635 whole entry, further chain): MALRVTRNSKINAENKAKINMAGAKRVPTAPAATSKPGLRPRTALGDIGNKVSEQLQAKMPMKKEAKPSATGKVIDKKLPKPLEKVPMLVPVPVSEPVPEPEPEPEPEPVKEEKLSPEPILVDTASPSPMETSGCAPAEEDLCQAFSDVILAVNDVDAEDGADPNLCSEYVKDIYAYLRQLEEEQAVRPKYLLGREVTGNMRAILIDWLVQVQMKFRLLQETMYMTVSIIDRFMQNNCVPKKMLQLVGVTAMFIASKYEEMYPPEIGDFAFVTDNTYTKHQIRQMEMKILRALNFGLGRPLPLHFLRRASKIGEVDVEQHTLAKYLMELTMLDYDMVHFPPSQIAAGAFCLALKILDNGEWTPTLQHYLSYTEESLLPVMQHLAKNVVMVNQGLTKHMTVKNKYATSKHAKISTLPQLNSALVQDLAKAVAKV

[11] = target: Cyclin-dependent kinase 2/cyclin E1 (Homo sapiens, UniProt P24941); assay: Inhibition of CDK2/cyclin E; type: protein-complex assay

| SMILES | GI50 (HT-29) | GI50 (A2780 [1]) | GI50 (HCT-116) | GI50 (A2780 [3]) | metabolised at 0.5 h, 10 µM [4] | IC50 [5] | IC50 [7] | IC50 [8] | IC50 [9] | IC50 [10] | IC50 [11] | GI50 (KM12) | GI50 (CH1 [2]) | GI50 (CH1 [6]) |
| --- | --- | --- | --- | --- | --- | --- | --- | --- | --- | --- | --- | --- | --- | --- |
| CC[C@@H](Nc1nc(NCc2ccccn2)c2ncn(C(C)C)c2n1)C(C)(C)O | > 50 µM | > 50 µM | > 50 µM | 34 µM | 73% | > 200 µM | – | – | – | – | – | > 50 µM | > 50 µM | > 50 µM |
| CC[C@H](CO)Nc1nc(NCc2ccccn2)c2ncn(C(C)C)c2n1 | 54 µM | 28 µM | 26 µM | 21.5 µM | – | > 50 µM | 0.04 µM | 3.8 µM | – | – | – | 38 µM | 23 µM | 26 µM |
| CC[C@H](CO)Nc1nc(NCc2cccnc2)c2ncn(C(C)C)c2n1 | 5.8 µM | 6.6 µM | 4.5 µM | 5.2 µM | 54% | > 50 µM | 0.18 µM | 20 µM | 24 µM | – | – | 5.5 µM | 16.5 µM | 4.8 µM |
| CC[C@H](CO)Nc1nc(NCc2ccncc2)c2ncn(C(C)C)c2n1 | 23 µM | 22 µM | 10 µM | 23 µM | 3% | > 50 µM | – | – | – | – | – | 7 µM | – | 8.2 µM |
| CCC(O)[C@@H](CC)Nc1nc(NCc2ccccn2)c2ncn(C(C)C)c2n1 (mixture of isomers) | > 50 µM | 40 µM | 29 µM | 22 µM | 88% | > 200 µM | – | – | – | – | – | 45 µM | 26 µM | 27 µM |
| CC[C@@H](Nc1nc(NCc2ccccn2)c2ncn(C(C)C)c2n1)C(O)C(C)C (mixture of isomers) | > 50 µM | > 50 µM | > 50 µM | 40 µM | 94% | > 200 µM | – | – | – | – | – | > 50 µM | > 50 µM | > 50 µM |
| CC[C@@H](Nc1nc(NCc2ccccn2)c2ncn(C(C)C)c2n1)C(O)C(C)(C)C (mixture of isomers) | 34 µM | > 50 µM | 29 µM | 23 µM | 93% | > 200 µM | – | – | – | 200 µM | – | 45 µM | 27 µM | 34 µM |
| CC[C@@H](Nc1nc(NCc2cccnc2)c2ncn(C(C)C)c2n1)C(O)C(C)(C)C (mixture of isomers) | 22 µM | 23 µM | 20 µM | 18 µM | 46% | > 200 µM | 1.6 µM | 24 µM | – | 23 µM | 1 µM | 19 µM | 23 µM | 23 µM |
| CCC(O)[C@H](CC)Nc1nc(NCc2ccccn2)c2ncn(C(C)C)c2n1 (mixture of isomers) | > 50 µM | 23 µM | 29 µM | 21 µM | 85% | > 200 µM | – | – | – | – | – | > 50 µM | 26 µM | 33 µM |
| CC[C@H](Nc1nc(NCc2ccccn2)c2ncn(C(C)C)c2n1)C(O)C(C)C (mixture of isomers) | > 50 µM | > 50 µM | > 50 µM | 35 µM | 23% | > 200 µM | – | – | – | 200 µM | – | > 50 µM | > 50 µM | > 50 µM |
| CC[C@H](Nc1nc(NCc2ccccn2)c2ncn(C(C)C)c2n1)C(O)C(C)(C)C (mixture of isomers) | 28 µM | > 50 µM | > 50 µM | 38 µM | 97% | > 200 µM | – | – | – | 200 µM | – | 36 µM | 47 µM | > 50 µM |

Second part, led by results:

| GI50 (HT-29) | GI50 (A2780 [1]) | GI50 (HCT-116) | GI50 (A2780 [3]) | metabolised at 0.5 h, 10 µM [4] | IC50 [5] | IC50 [7] | IC50 [8] | IC50 [9] | IC50 [10] | IC50 [11] | SMILES | GI50 (KM12) | GI50 (CH1 [2]) | GI50 (CH1 [6]) |
| --- | --- | --- | --- | --- | --- | --- | --- | --- | --- | --- | --- | --- | --- | --- |
| 23 µM | 23 µM | 20 µM | 15 µM | 52% | 191 µM | – | – | – | – | – | CC[C@@H](Nc1nc(NCc2ccccc2)c2ncn(C(C)C)c2n1)C(C)(C)O | 21 µM | 19.5 µM | 23 µM |
| 23 µM | 22 µM | 16 µM | 16 µM | 73% | 200 µM | – | – | – | – | – | CC[C@H](Nc1nc(NCc2ccccc2)c2ncn(C(C)C)c2n1)C(C)(C)O | 20 µM | – | 22 µM |
| 4.7 µM | 4.4 µM | 2.5 µM | 3.1 µM | 10% | > 200 µM | – | – | 23 µM | 4.9 µM | – | CC[C@@H](Nc1nc(NCc2cccnc2)c2ncn(C(C)C)c2n1)C(C)O (mixture of isomers) | 4.7 µM | 5.2 µM | 4.5 µM |
| 20 µM | 19 µM | 10 µM | 6.2 µM | 30% | > 200 µM | 1.1 µM | 25 µM | – | 12 µM | 0.22 µM | CCC(O)[C@@H](CC)Nc1nc(NCc2cccnc2)c2ncn(C(C)C)c2n1 (mixture of isomers) | 13.5 µM | 14.5 µM | 18 µM |
| 32 µM | 37 µM | 25 µM | 23 µM | 36% | > 200 µM | 2.2 µM | 21 µM | – | 20 µM | 0.69 µM | CC[C@@H](Nc1nc(NCc2cccnc2)c2ncn(C(C)C)c2n1)C(O)C(C)C (mixture of isomers) | 31 µM | 25 µM | 30 µM |
| 18 µM | 3.8 µM | 5.4 µM | 6.4 µM | 91% | > 50 µM | 0.39 µM | 23 µM | 43 µM | – | – | CC[C@@H](Nc1nc(NCc2ccccc2)c2ncn(C(C)C)c2n1)C(C)O (mixture of isomers) | 5.4 µM | 4.6 µM | 5 µM |
| 23 µM | 21 µM | 26 µM | 14.5 µM | 63% | 139 µM | – | – | – | – | – | CCC(O)[C@@H](CC)Nc1nc(NCc2ccccc2)c2ncn(C(C)C)c2n1 (mixture of isomers) | 23 µM | 18 µM | 23 µM |
| 13 µM | 21 µM | 22 µM | 17 µM | 83% | 92 µM | – | – | > 200 µM | – | – | CC[C@@H](Nc1nc(NCc2ccccc2)c2ncn(C(C)C)c2n1)C(O)C(C)C (mixture of isomers) | 27 µM | 19 µM | 23 µM |
| 14.5 µM | 23 µM | 24 µM | 18.5 µM | 79% | 87 µM | – | 200 µM | > 200 µM | – | – | CC[C@@H](Nc1nc(NCc2ccccc2)c2ncn(C(C)C)c2n1)C(O)C(C)(C)C (mixture of isomers) | 17 µM | 19 µM | 23 µM |
| 1.1 µM | 1 µM | 0.76 µM | 0.78 µM | 33% | > 200 µM | – | – | 20 µM | 2.2 µM | – | CC[C@H](Nc1nc(NCc2cccnc2)c2ncn(C(C)C)c2n1)C(C)O (mixture of isomers) | 1.15 µM | 1.5 µM | 0.92 µM |
| 4.9 µM | 3.4 µM | 1.45 µM | 3.3 µM | 67% | > 50 µM | 0.69 µM | 9 µM | 29 µM | – | – | CC[C@H](Nc1nc(NCc2ccccc2)c2ncn(C(C)C)c2n1)C(C)O (mixture of isomers) | 1.9 µM | 1.28 µM | 1.75 µM |
| 23 µM | 21 µM | 20 µM | 16 µM | 67% | > 200 µM | 1.1 µM | 20 µM | – | – | – | CCC(O)[C@H](CC)Nc1nc(NCc2ccccc2)c2ncn(C(C)C)c2n1 (mixture of isomers) | 27 µM | – | – |
| 23 µM | 23 µM | 24 µM | 20 µM | 76% | 83 µM | 3 µM | 33 µM | 88 µM | – | – | CC[C@H](Nc1nc(NCc2ccccc2)c2ncn(C(C)C)c2n1)C(O)C(C)C (mixture of isomers) | 25 µM | 24 µM | 25 µM |
| 21.5 µM | 23 µM | 27 µM | 21.5 µM | 74% | > 200 µM | – | – | > 200 µM | – | – | CC[C@H](Nc1nc(NCc2ccccc2)c2ncn(C(C)C)c2n1)C(O)C(C)(C)C (mixture of isomers) | 19 µM | 21.5 µM | 26 µM |

From ChEMBL document CHEMBL1921760, “Design, synthesis and biological evaluation of 6-pyridylmethylaminopurines as CDK inhibitors” (Bioorg Med Chem, 2011)
